Legend:
[1] = Biodistribution of 18F-labelled tracers in rats; assay type: in vivo
Procedure: [^18F]Fluoride, in the form of H^18F, was produced by the ^18O(p,n)^18F nuclear reaction by bombardment of ^18O-enriched water target. The aqueous [^18F]fluoride solution was added to a 2.5-mL wheaton vial containing dry acetonitrile (1 mL), Kryptofix 2.2.2 (5 mg, 13.3 μmol) and potassium carbonate (2 mg, 14.5 μmol). The solvent was evaporated under a stream of nitrogen at 90° C. with a reducing vacuum. This azeotropic drying was repeated twice by further addition of acetonitrile (2×1 mL). The tosylate precursor 2-(2-(4-(2-tosylethoxy)phenyl)-6-chloroimidazo[1,2-a]pyridin-3-yl)-N,N-diethylacetamide (2 mg, 3.6 μmol) was dissolved in acetonitrile (1 ml) and added to the dried K222.K2CO3.KF complex. Stirring and heating at 90° C. continued for 10 to 15 mins before the reaction mixture was diluted with mobile phase and purified by reverse phase HPLC on an Alltech Alltima, C18, 10μ, 250×22 mm column eluting at 10 mLs/min with 45% acetonitrile, 55% water with 0.1% TFA.
(§1) The biodistribution of PBR132* was undertaken in SD rats and analysis up to 4 h p.i. in the brain and peripheral tissues was performed. The specificity and selectivity of the tracer were assessed by pre-treatment with PBR and Central benzodiazepine receptor (CBR) specific ligands (1 mg/kg) 5 min prior to injection of PBR132*.
(§2) The biodistribution of PBR 147* was performed in SD rats and brain and peripheral tissues were analysised at 15, 30 min, 1, and 4 h p.i. The specificity and selectivity of the tracer was assessed by pre-treatment of the animals with the PBR ligands PK11195 and Ro 5-4864 and with Flumazenil for CBR at 1 mg/kg 5 min prior to injection of PBR 147*
(§3) The biodistribution of PBR102* and PBR111* were performed in SD rats and brain and peripheral tissues analysed at 15, 30 min, 1, and 4 h p.i. The specificity and selectivity of the tracers were assessed by pre-treatment with the PBR ligands PK11195 and Ro 5-4864 and with Flumazenil for CBR at 1 mg/kg 5 min prior to injection of the corresponding tracers.
(§4) The specificity and selectivity of the tracers were assessed by pre-treatment with the PBR ligands PK11195 and Ro 5-4864 and with Flumazenil for CBR at 1 mg/kg 5 min prior to injection of the corresponding tracers.

[2] = target: T1, peripheral benzodiazepine receptors (Rattus norvegicus, UniProt P16257); assay: In vivo blocking / competition of tracer uptake by pre-treatment with PBR and CBR ligands; conditions: rats
T1 construct: high uptake in the tissues which have known PBR sites; from tissue; host or cells: organs of living SD rats (brain and peripheral tissues), in vivo
Procedure: The criteria for significance were **p<0.01 (highly significant) and *p<0.05 (significant). No stars implies not statistical difference from normals or controls.
as §1, §2, §3, §4

[3] = SD rats, 15 min, decay correction not stated
[4] = SD rats, 4 hours, decay correction not stated
[5] = rats, 15 min, corrected for decay of 18F
[6] = rats, 30 min, corrected for decay of 18F
[7] = rats, 60 min, corrected for decay of 18F
[8] = rats, 4 hours, corrected for decay of 18F

CCN(CC)C(=O)Cc1c(-c2ccc(OCCCF)cc2)nn2c(C)cc(C)nc12 [PBR146*]
Biodistribution: Blood [1, 3]: 0.4 % ID/g
Biodistribution: Bone [1, 3]: 1.0 % ID/g
Biodistribution: Kidney [1, 3]: 5.5 % ID/g
Biodistribution: Olfactory bulbs [1, 3]: 0.41 % ID/g
Biodistribution: Adrenals ([1]; SD rats, 30 min, decay correction not stated): 7.9 % ID/g
Biodistribution: Adrenals [1, 4]: 12.2 % ID/g
Biodistribution: Blood [1, 4]: 0.1 % ID/g
Biodistribution: Bone [1, 4]: 5.0 % ID/g
Biodistribution: Kidney [1, 4]: 3.2 % ID/g
Biodistribution: Olfactory bulbs [1, 4]: 0.31 % ID/g
Biodistribution: Adrenals [1, 5]: 8.05 ± 0.66 % ID/g
Biodistribution: Bladder [1, 5]: 0.63 ± 0.14 % ID/g
Biodistribution: Blood [1, 5]: 0.38 ± 0.08 % ID/g
Biodistribution: Bone [1, 5]: 1.06 ± 0.17 % ID/g
Biodistribution: Brain [1, 5]: 0.27 ± 0.03 % ID/g
Biodistribution: Heart [1, 5]: 8.99 ± 0.69 % ID/g
Biodistribution: Kidney [1, 5]: 5.53 ± 1.20 % ID/g
Biodistribution: Liver [1, 5]: 1.08 ± 0.05 % ID/g
Biodistribution: Lungs [1, 5]: 20.42 ± 4.32 % ID/g
Biodistribution: Muscle [1, 5]: 1.10 ± 0.15 % ID/g
Biodistribution: Olfactory bulbs [1, 5]: 0.41 ± 0.10 % ID/g
Biodistribution: Pancreas [1, 5]: 2.20 ± 0.68 % ID/g
Biodistribution: Skin [1, 5]: 0.53 ± 0.11 % ID/g
Biodistribution: Spleen [1, 5]: 5.49 ± 0.90 % ID/g
Biodistribution: Stomach [1, 5]: 0.69 ± 0.12 % ID/g
Biodistribution: Testes [1, 5]: 0.269 ± 0.022 % ID/g
Biodistribution: Thymus [1, 5]: 0.80 ± 0.07 % ID/g
Biodistribution: Thyroid [1, 5]: 7.71 ± 2.92 % ID/g
Biodistribution: Adrenals [1, 6]: 7.94 ± 1.52 % ID/g
Biodistribution: Bladder [1, 6]: 0.71 ± 0.22 % ID/g
Biodistribution: Blood [1, 6]: 0.26 ± 0.03 % ID/g
Biodistribution: Bone [1, 6]: 1.46 ± 0.27 % ID/g
Biodistribution: Brain [1, 6]: 0.15 ± 0.02 % ID/g
Biodistribution: GIT [1, 6]: 1.25 ± 0.09 % ID/g
Biodistribution: Heart [1, 6]: 9.05 ± 0.51 % ID/g
Biodistribution: Kidney [1, 6]: 4.91 ± 0.21 % ID/g
Biodistribution: Liver [1, 6]: 0.98 ± 0.21 % ID/g
Biodistribution: Lungs [1, 6]: 12.36 ± 1.28 % ID/g
Biodistribution: Muscle [1, 6]: 0.82 ± 0.13 % ID/g
Biodistribution: Olfactory bulbs [1, 6]: 0.45 ± 0.07 % ID/g
Biodistribution: Pancreas [1, 6]: 1.59 ± 0.10 % ID/g
Biodistribution: Skin [1, 6]: 0.55 ± 0.05 % ID/g
Biodistribution: Spleen [1, 6]: 5.53 ± 0.36 % ID/g
Biodistribution: Stomach [1, 6]: 1.03 ± 0.16 % ID/g
Biodistribution: Testes [1, 6]: 0.285 ± 0.024 % ID/g
Biodistribution: Thymus [1, 6]: 0.84 ± 0.11 % ID/g
Biodistribution: Thyroid [1, 6]: 7.69 ± 2.21 % ID/g
Biodistribution: Adrenals [1, 7]: 11.02 ± 1.88 % ID/g
Biodistribution: Bladder [1, 7]: 0.89 ± 0.25 % ID/g
Biodistribution: Blood [1, 7]: 0.18 ± 0.02 % ID/g
Biodistribution: Bone [1, 7]: 2.07 ± 0.27 % ID/g
Biodistribution: Brain [1, 7]: 0.12 ± 0.01 % ID/g
Biodistribution: GIT [1, 7]: 1.51 ± 0.21 % ID/g
Biodistribution: Heart [1, 7]: 8.57 ± 1.01 % ID/g
Biodistribution: Kidney [1, 7]: 4.70 ± 0.24 % ID/g
Biodistribution: Liver [1, 7]: 0.69 ± 0.26 % ID/g
Biodistribution: Lungs [1, 7]: 7.12 ± 0.95 % ID/g
Biodistribution: Muscle [1, 7]: 0.67 ± 0.04 % ID/g
Biodistribution: Olfactory bulbs [1, 7]: 0.25 ± 0.06 % ID/g
Biodistribution: Pancreas [1, 7]: 1.41 ± 0.22 % ID/g
Biodistribution: Skin [1, 7]: 0.67 ± 0.06 % ID/g
Biodistribution: Spleen [1, 7]: 5.14 ± 0.38 % ID/g
Biodistribution: Stomach [1, 7]: 1.27 ± 0.45 % ID/g
Biodistribution: Testes [1, 7]: 0.319 ± 0.028 % ID/g
Biodistribution: Thymus [1, 7]: 0.96 ± 0.17 % ID/g
Biodistribution: Thyroid [1, 7]: 13.37 ± 0.46 % ID/g
Biodistribution: Adrenals [1, 8]: 12.21 ± 1.56 % ID/g
Biodistribution: Bladder [1, 8]: 1.26 ± 0.16 % ID/g
Biodistribution: Blood [1, 8]: 0.10 ± 0.01 % ID/g
Biodistribution: Bone [1, 8]: 4.12 ± 0.23 % ID/g
Biodistribution: Brain [1, 8]: 0.08 ± 0.01 % ID/g
Biodistribution: GIT [1, 8]: 1.54 ± 0.11 % ID/g
Biodistribution: Heart [1, 8]: 5.76 ± 0.92 % ID/g
Biodistribution: Kidney [1, 8]: 3.23 ± 0.26 % ID/g
Biodistribution: Liver [1, 8]: 0.38 ± 0.09 % ID/g
Biodistribution: Lungs [1, 8]: 3.25 ± 0.21 % ID/g
Biodistribution: Muscle [1, 8]: 0.31 ± 0.06 % ID/g
Biodistribution: Olfactory bulbs [1, 8]: 0.31 ± 0.08 % ID/g
Biodistribution: Pancreas [1, 8]: 0.77 ± 0.16 % ID/g
Biodistribution: Skin [1, 8]: 0.71 ± 0.07 % ID/g
Biodistribution: Spleen [1, 8]: 3.61 ± 0.19 % ID/g
Biodistribution: Stomach [1, 8]: 0.34 ± 0.04 % ID/g
Biodistribution: Testes [1, 8]: 0.426 ± 0.043 % ID/g
Biodistribution: Thymus [1, 8]: 1.35 ± 0.15 % ID/g
Biodistribution: Thyroid [1, 8]: 10.68 ± 1.44 % ID/g

CN(C(=O)Cc1c(-c2ccc(OCCC[18F])cc2)nc2c(Cl)cc(Cl)cn12)c1ccccc1 [PBR147*, 2-(2-(4-(3-fluoropropoxy)phenyl)-6,8-dichloroimidazo[1,2-a]pyridin-3-yl)-N-methyl-N-phenylacetamide]
Tracer uptake after pre-treatment with PK 11195 ([2]; PK 11195 1 mg/kg 5 min prior to tracer, PBR-expressing tissues (brain/peripheral organs, adrenals apart)): blocking effect
Tracer uptake after pre-treatment with Ro 5-4864 ([2]; Ro 5-4864 1 mg/kg 5 min prior to tracer, PBR-expressing tissues (brain/peripheral organs, adrenals apart)): blocking effect
Tracer uptake after pre-treatment with flumazenil (central benzodiazepine ligand) ([2]; flumazenil 1 mg/kg 5 min prior to tracer, brain or peripheral organs): does not reduce
Tracer uptake after pre-treatment with the non-radioactive analogue ([2]; non-radioactive analogue 1 mg/kg, PBR-expressing tissues): blocking effect

— patent US20100209345A1, “Fluorinated Ligands for Targeting Peripheral Benzodiazepine Receptors” (Australian Nuclear Science & Technology Organisation, priority 2006, published 2010)
